Several values for one entry are separate records, joined by “and”; a condition that tells them apart may be missing. Equal values may be shown once.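 Test compounds were applied to cells in 96-well plates for 48 hours at 5 doses. TGI marks complete inhibition of growth.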

What all share (experiment): DTP human tumour cell line panel, 48 h
The subject of assay [1] is OVCAR-4 ovarian.
Assay [2] has as its system NCI-H23 lung.
Assay [3] concerns NCI-H226 lung.
Assay [4] has as its system K-562 leukemia.
The subject of assay [5] is 786-0 renal.
In assay [6] the test system is UACC-62 melanoma.
Assay [7] relates to NCI-H522 lung.
For assay [8], the system named is LOX IMVI melanoma.
The subject of assay [9] is PC-3 prostate.
The subject of assay [10] is DU-145 prostate.

Consider `NC1=NS(=O)(=O)N=C(N)C1=Cc1ccc([N+](=O)[O-])o1`, for which the TGI in assay [1] amounted to 34.1 µM; in [2] it was 31.4 µM; in assay [3] it was 53.7 µM; in [4], 19.5 µM; in [5], 30.8 µM; in [6], 30.2 µM. The results for the concentration for total growth inhibition (TGI) in assay [7] and in [8] were 31.5 µM and 33.2 µM, respectively.
Consider `O=C1CSC2(CC(/C=C/C=C/c3ccccc3)=NN2c2cccc(S(=O)(=O)O)c2)N1c1nc2ccccc2s1` (stereo unspecified), for which the TGI in [1], in assay [2], in assay [3], in assay [4], in [5] and in assay [6] was greater than 100 µM throughout. In addition, the total growth inhibition concentration (TGI) in assay [9] is greater than 100 µM; in [7], greater than 100 µM; in [8], 42.2 µM.
As for `c1ccc(C2=NN3CN(N2)c2ccccc2OCCCOc2ccccc23)cc1`, the TGI in assay [1], in [2], in [3], in assay [4], in assay [5] and in assay [6] was greater than 100 µM in each case. The TGI in assay [7] and in assay [8] was greater than 100 µM in each case.
Take `Cc1ccc(S(=O)(=O)Nn2c(-c3ccccc3)c(C#N)c(-c3ccc([N+](=O)[O-])cc3)c(C#N)c2=O)cc1`: the TGI in [1], in assay [3], in [5], in assay [6], in assay [9] and in assay [7] was greater than 100 µM throughout. In addition, the concentration for total growth inhibition (TGI) in assay [8] was greater than 100 µM.
For `CC(C)(CN1CCCCC1)C(=O)CC(SCCS(=O)(=O)O)c1ccc(Br)cc1` (stereo unspecified), the TGI came out at 4.06 µM in assay [1]; 5.9 µM in assay [2]; 8.75 µM in [3]; 8.63 µM in [4]; 2.71 µM in assay [5]; 3.69 µM in assay [6]. This compound registered a total growth inhibition concentration (TGI) in assay [7] of 2.9 µM.
In the case of `COc1cc(C(=O)Nc2nnc(S(N)(=O)=O)s2)cc(OC)c1OC`, the concentration for total growth inhibition (TGI) in assay [1], in [10], in assay [2], in assay [3], in assay [4] and in assay [5] was greater than 100 µM each time. Also, the TGI in assay [6], in assay [7] and in assay [8] was greater than 100 µM throughout.
Consider `Cc1nc2c(n1Cc1ccc(Cl)cc1)C(=O)c1ccccc1C2=O`, for which the total growth inhibition concentration (TGI) in [1], in assay [2], in assay [3], in [4], in assay [5] and in [6] was greater than 75 µM each time. Also, the TGI in [7] and in [8] was greater than 75 µM in each case.
In the case of `CCCCN(CCCC)C(=NCc1ccccc1)NC#N`, the concentration for total growth inhibition (TGI) is greater than 100 µM in [1]; 58.5 µM in assay [2]; 64.8 µM in [3]; 28.3 µM in assay [4]; 47 µM in assay [5]; 33.6 µM in [6]. The figures for the concentration for total growth inhibition (TGI) in assay [7] and in assay [8] were 18.4 µM and 30.4 µM, respectively.
With `O=S1(=O)NNC(=NCc2ccc(F)cc2)c2ccccc21`, the TGI was greater than 100 µM in assay [1]; greater than 100 µM in [10]; greater than 100 µM in assay [2]; greater than 100 µM in [3]; greater than 73.1 µM in assay [4]; greater than 100 µM in assay [5]. The concentration for total growth inhibition (TGI) in [6] and in assay [8] was greater than 100 µM each time.
`Brc1ccc(N2C[N+](c3ccc(Br)cc3)=NC(c3ccccc3)=N2)cc1`: the TGI is 35.3 µM and > 100 µM in assay [1]; 31.7 µM and > 100 µM in [2]; 44.4 µM and > 100 µM in [3]; 32.8 µM and > 100 µM in assay [4]; 29.5 µM and > 100 µM in assay [5]; 28.2 µM and > 100 µM in [6]. Further, the concentration for total growth inhibition (TGI) in assay [7] was 36.4 µM and > 100 µM.
As to `COc1cc(C2SCC(=O)N2NC(=O)c2ccc(NC(C)=O)cc2)cc(OC)c1OC` (stereo unspecified), the concentration for total growth inhibition (TGI) in assay [1], in [10], in [2], in assay [3], in assay [4] and in assay [5] was greater than 100 µM throughout. The TGI in [6] is greater than 100 µM.
With `O=C(c1cccs1)N(C(=S)N1CCN(c2ccccc2)CC1)c1ccccc1`, the concentration for total growth inhibition (TGI) in [1], in assay [2], in assay [3], in assay [4], in assay [5] and in assay [6] was greater than 100 µM throughout. The concentration for total growth inhibition (TGI) in assay [7] and in assay [8] was greater than 100 µM throughout.
In the case of `Cc1cnc(Cl)nc1C(C#N)c1nc2ccccc2n1C` (stereo unspecified), the TGI was greater than 100 µM in assay [1]; greater than 100 µM in [10]; greater than 100 µM in assay [2]; greater than 100 µM in [3]; greater than 100 µM in assay [5]; 43.4 µM in [7]. The compound further yielded a TGI in [8] greater than 100 µM.

A word on the TGI: it is the concentration giving total growth inhibition. Read a low TGI as greater sensitivity of the cells.

(Values after PubChem BioAssay (NCI).)
